According to patent publication US20110098304A1, “Small molecule inhibitors of PARP activity” (priority 2009, published 2011):
pIC50: −log10 of the molar value.

Each compound was assayed against T1, human PARD-1 (Poly (ADP-Ribose) Polymerase-1) (Homo sapiens, UniProt P09874) (assay: Poly (ADP-Ribose) Polymerase-1 in vitro enzyme assay (Universal Colorimetric Assay Kit, Trevigen)). Settings: letter codes; read-out: extent of inhibition of PARP activity (IC50, micromolar).
T1 construct: purchased Trevigen Inc., Gaithersburg, Md
Format: biochemical
Method: Poly (ADP-Ribose) Polymerase-1 (PARD-1) In Vitro Enzyme Assay: Compounds were screened for inhibitory activity against human PARD-1 in vitro using the Universal Colorimetric PARD Assay Kit (Trevigen Inc., Gaithersburg, Md.) as directed by the supplier. Compounds are assayed in duplicate in 0.5% DMSO final concentration, negative control is no enzyme, while positive control is DMSO vehicle alone. IC50 determinations are made using Microsoft Excel. For all cell assays, compounds are added to cells in 5% DMSO/PBS for a final concentration of 0.5% DMSO.

T1 sequence (P09874 whole entry): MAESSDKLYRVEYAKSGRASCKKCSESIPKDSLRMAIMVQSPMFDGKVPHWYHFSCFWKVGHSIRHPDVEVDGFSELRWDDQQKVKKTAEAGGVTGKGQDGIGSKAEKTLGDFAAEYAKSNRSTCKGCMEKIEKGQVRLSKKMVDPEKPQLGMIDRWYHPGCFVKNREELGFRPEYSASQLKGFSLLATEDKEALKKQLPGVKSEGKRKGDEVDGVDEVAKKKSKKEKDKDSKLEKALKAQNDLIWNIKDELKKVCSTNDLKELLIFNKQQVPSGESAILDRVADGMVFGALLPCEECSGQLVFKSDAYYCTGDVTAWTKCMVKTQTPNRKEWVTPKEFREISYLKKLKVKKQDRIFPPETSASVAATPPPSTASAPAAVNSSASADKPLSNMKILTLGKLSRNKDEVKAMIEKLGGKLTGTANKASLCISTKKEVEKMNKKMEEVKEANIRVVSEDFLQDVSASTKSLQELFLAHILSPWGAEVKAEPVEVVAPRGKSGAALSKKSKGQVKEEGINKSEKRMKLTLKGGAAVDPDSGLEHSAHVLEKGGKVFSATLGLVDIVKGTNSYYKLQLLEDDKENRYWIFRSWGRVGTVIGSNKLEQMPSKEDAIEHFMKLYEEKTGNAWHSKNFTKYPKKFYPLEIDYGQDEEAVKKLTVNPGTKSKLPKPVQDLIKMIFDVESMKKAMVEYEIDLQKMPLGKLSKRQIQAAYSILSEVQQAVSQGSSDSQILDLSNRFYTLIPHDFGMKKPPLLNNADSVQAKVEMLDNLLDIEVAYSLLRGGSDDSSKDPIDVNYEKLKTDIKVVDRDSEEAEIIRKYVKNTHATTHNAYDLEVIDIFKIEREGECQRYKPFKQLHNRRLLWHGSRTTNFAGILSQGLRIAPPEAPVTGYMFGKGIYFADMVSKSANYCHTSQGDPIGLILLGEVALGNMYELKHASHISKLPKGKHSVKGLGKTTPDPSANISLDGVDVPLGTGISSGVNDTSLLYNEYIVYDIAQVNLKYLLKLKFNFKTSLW

`CN1CCN(c2ccc(-c3n[nH]c(=O)c4ccccc34)cc2NC(=O)Nc2ccc(F)cc2)CC1` [1-(4-fluorophenyl)-3-(2-(4-methylpiperazin-1-yl)-5-(4-oxo-3,4-dihydrophthalazin-1-yl)phenyl)urea] and `CNC(=O)Nc1cc(-c2n[nH]c(=O)c3ccccc23)ccc1N1CCN(C)CC1` [1-methyl-3-(2-(4-methylpiperazin-1-yl)-5-(4-oxo-3,4-dihydrophthalazin-1-yl)phenyl)urea] fall in the same range of pIC50: 6.00 to 7.00 for the first, 6.00 to 7.00 for the second.

`CN1CCN(c2ccc(-c3n[nH]c(=O)c4ccccc34)cc2NC(=O)NC2CCCCC2)CC1` [1-cyclohexyl-3-(2-(4-methylpiperazin-1-yl)-5-(4-oxo-3,4-dihydrophthalazin-1-yl)phenyl)urea] and `CN1CCN(c2ccc(-c3n[nH]c(=O)c4ccccc34)cc2NC(=O)NC2CCCC2)CC1` [1-cyclopentyl-3-(2-(4-methylpiperazin-1-yl)-5-(4-oxo-3,4-dihydrophthalazin-1-yl)phenyl)urea] fall in the same range of pIC50: 6.00 to 7.00 for the first, 6.00 to 7.00 for the second.

First: CCNC(=O)Nc1cc(-c2n[nH]c(=O)c3ccccc23)ccc1N1CCN(C)CC1 [1-ethyl-3-(2-(4-methylpiperazin-1-yl)-5-(4-oxo-3,4-dihydrophthalazin-1-yl)phenyl)urea]
Second: CC(=O)Nc1cc(-c2n[nH]c(=O)c3ccccc23)ccc1N1CCN(C)CC1 [N-(2-(4-methylpiperazin-1-yl)-5-(4-oxo-3,4-dihydrophthalazin-1-yl)phenyl)acetamide]
The pIC50 of the first is lower: 5.30 to 6.00 for the first, 6.00 to 7.00 for the second.

First: CN1CCN(c2ccc(-c3n[nH]c(=O)c4ccccc34)cc2NC(=O)NC(C)(C)C)CC1 [1-tert-butyl-3-(2-(4-methylpiperazin-1-yl)-5-(4-oxo-3,4-dihydrophthalazin-1-yl)phenyl)urea]
Second: CC(C)C(=O)Nc1cc(-c2n[nH]c(=O)c3ccccc23)ccc1N1CCN(C)CC1 [N-(2-(4-methylpiperazin-1-yl)-5-(4-oxo-3,4-dihydrophthalazin-1-yl)phenyl)isobutyramide]
The pIC50 of the first is higher: 6.00 to 7.00 for the first, 5.30 to 6.00 for the second. The first is the more potent here.

Compared with `Nc1cc(-c2n[nH]c(=O)c3ccccc23)ccc1N1CCN(CC(=O)O)CC1` [2-(4-(2-amino-4-(4-oxo-3,4-dihydrophthalazin-1-yl)phenyl)piperazin-1-yl)acetic acid], `Nc1cc(-c2n[nH]c(=O)c3ccccc23)ccc1N1CCN(CCC(=O)O)CC1` [3-(4-(2-amino-4-(4-oxo-3,4-dihydrophthalazin-1-yl)phenyl)piperazin-1-yl)propanoic acid] is lower in pIC50: 7.00 to 9.00 for the first, 6.00 to 7.00 for the second. The first is the more potent here.

Compared with `CN1CCN(c2ccc(-c3n[nH]c(=O)c4ccccc34)cc2NC(=O)CCl)CC1` [2-chloro-N-(2-(4-methylpiperazin-1-yl)-5-(4-oxo-3,4-dihydrophthalazin-1-yl)phenyl)acetamide], `CN1CCN(c2ccc(-c3n[nH]c(=O)c4ccccc34)cc2NC(=O)Cc2cccs2)CC1` [N-(2-(4-methylpiperazin-1-yl)-5-(4-oxo-3,4-dihydrophthalazin-1-yl)phenyl)-2-(thiophen-2-yl)acetamide] is lower in pIC50: 6.00 to 7.00 for the first, 5.30 to 6.00 for the second. The first is the more potent here.

`N#CCCN1CCN(c2ccc(-c3n[nH]c(=O)c4ccccc34)cc2N)CC1` [3-(4-(2-amino-4-(4-oxo-3,4-dihydrophthalazin-1-yl)phenyl)piperazin-1-yl)propanenitrile] and `Nc1cc(-c2n[nH]c(=O)c3ccccc23)ccc1N1CCN(CCO)CC1` [4-(3-amino-4-(4-(2-hydroxyethyl)piperazin-1-yl)phenyl)phthalazin-1(2H)-one] fall in the same range of pIC50: 7.00 to 9.00 for the first, 7.00 to 9.00 for the second.

`CN1CCN(c2ccc(-c3n[nH]c(=O)c4ccccc34)cc2NC(=O)c2cccc(C#N)c2)CC1` [3-cyano-N-(2-(4-methylpiperazin-1-yl)-5-(4-oxo-3,4-dihydrophthalazin-1-yl)phenyl)benzamide] and `CN1CCN(c2ccc(-c3n[nH]c(=O)c4ccccc34)cc2NC(=O)c2ccco2)CC1` [N-(2-(4-methylpiperazin-1-yl)-5-(4-oxo-3,4-dihydrophthalazin-1-yl)phenyl)furan-2-carboxamide] fall in the same range of pIC50: 6.00 to 7.00 for the first, 6.00 to 7.00 for the second.

`CN1CCC(N2CCN(c3ccc(-c4n[nH]c(=O)c5ccccc45)cc3N)CC2)CC1` [4-(3-amino-4-(4-(1-methylpiperidin-4-yl)piperazin-1-yl)phenyl)phthalazin-1(2H)-one] and `Nc1cc(-c2n[nH]c(=O)c3ccccc23)ccc1N1CCN(C2CC2)CC1` [4-(3-amino-4-(4-cyclopropylpiperazin-1-yl)phenyl)phthalazin-1(2H)-one] fall in the same range of pIC50: 7.00 to 9.00 for the first, 7.00 to 9.00 for the second.

`CN(C)CCN1CCN(c2ccc(-c3n[nH]c(=O)c4ccccc34)cc2N)CC1` [4-(3-amino-4-(4-(2-(dimethylamino)ethyl)piperazin-1-yl)phenyl)phthalazin-1(2H)-one] and `COCCN1CCN(c2ccc(-c3n[nH]c(=O)c4ccccc34)cc2N)CC1` [4-(3-amino-4-(4-(2-methoxyethyl)piperazin-1-yl)phenyl)phthalazin-1(2H)-one] fall in the same range of pIC50: 6.00 to 7.00 for the first, 6.00 to 7.00 for the second.

First: Nc1ccccc1N1CCN(c2ccc(-c3n[nH]c(=O)c4ccccc34)cc2N)CC1 [4-(3-amino-4-(4-(2-aminophenyl)piperazin-1-yl)phenyl)phthalazin-1(2H)-one]
Second: Nc1cc(-c2n[nH]c(=O)c3ccccc23)ccc1N1CCN(c2ccncc2)CC1 [4-(3-amino-4-(4-(pyridin-4-yl)piperazin-1-yl)phenyl)phthalazin-1(2H)-one]
The pIC50 of the first is lower: 5.30 to 6.00 for the first, 7.00 to 9.00 for the second.

`Nc1cc(-c2n[nH]c(=O)c3ccccc23)ccc1N1CCN(CCCO)CC1` [4-(3-amino-4-(4-(3-hydroxypropyl)piperazin-1-yl)phenyl)phthalazin-1(2H)-one] and `CCN1CCN(c2ccc(-c3n[nH]c(=O)c4ccccc34)cc2N)CC1` [4-(3-amino-4-(4-ethylpiperazin-1-yl)phenyl)phthalazin-1(2H)-one] fall in the same range of pIC50: 7.00 to 9.00 for the first, 7.00 to 9.00 for the second.

First: Nc1cc(-c2n[nH]c(=O)c3ccccc23)ccc1N1CCN(CC2CCCO2)CC1 (stereo not drawn) [4-(3-amino-4-(4-((tetrahydrofuran-2-yl)methyl)piperazin-1-yl)phenyl)phthalazin-1(2H)-one]
Second: Nc1cc(-c2n[nH]c(=O)c3ccccc23)ccc1N1CCN(CC2CC2)CC1 [4-(3-amino-4-(4-(cyclopropylmethyl)piperazin-1-yl)phenyl)phthalazin-1(2H)-one]
The pIC50 of the first is lower: 6.00 to 7.00 for the first, 7.00 to 9.00 for the second.

`Nc1cc(-c2n[nH]c(=O)c3ccccc23)ccc1N1CCN(CC2CCCCC2)CC1` [4-(3-amino-4-(4-(cyclohexylmethyl)piperazin-1-yl)phenyl)phthalazin-1(2H)-one] and `Nc1cc(-c2n[nH]c(=O)c3ccccc23)ccc1N1CCN(C2CCCC2)CC1` [4-(3-amino-4-(4-cyclopentylpiperazin-1-yl)phenyl)phthalazin-1(2H)-one] fall in the same range of pIC50: 7.00 to 9.00 for the first, 7.00 to 9.00 for the second.

`Nc1cc(-c2n[nH]c(=O)c3ccccc23)ccc1N1CCN(Cc2cccnc2)CC1` [4-(3-amino-4-(4-(pyridin-3-ylmethyl)piperazin-1-yl)phenyl)phthalazin-1(2H)-one] and `Nc1cc(-c2n[nH]c(=O)c3ccccc23)ccc1N1CCN(Cc2ccncc2)CC1` [4-(3-amino-4-(4-(pyridin-4-ylmethyl)piperazin-1-yl)phenyl)phthalazin-1(2H)-one] fall in the same range of pIC50: 7.00 to 9.00 for the first, 7.00 to 9.00 for the second.

First: Nc1cc(-c2n[nH]c(=O)c3ccccc23)ccc1N1CCN(Cc2ccccc2)CC1 [4-(3-amino-4-(4-benzylpiperazin-1-yl)phenyl)phthalazin-1(2H)-one]
Second: CN1CCN(c2ccc(-c3n[nH]c(=O)c4ccccc34)cc2N)CC1 [4-(3-amino-4-(4-methylpiperazin-1-yl)phenyl)phthalazin-1(2H)-one]
The pIC50 of the first is lower: 6.00 to 7.00 for the first, 7.00 to 9.00 for the second.

First: Nc1cc(-c2n[nH]c(=O)c3ccccc23)ccc1N1CCN(C(=O)c2ccncc2)CC1 [4-(3-amino-4-(4-isonicotinoylpiperazin-1-yl)phenyl)phthalazin-1(2H)-one]
Second: CC(C)N1CCN(c2ccc(-c3n[nH]c(=O)c4ccccc34)cc2N)CC1 [4-(3-amino-4-(4-isopropylpiperazin-1-yl)phenyl)phthalazin-1(2H)-one]
The pIC50 of the first is lower: 6.00 to 7.00 for the first, 7.00 to 9.00 for the second.

`CC(C)(C)N1CCN(c2ccc(-c3n[nH]c(=O)c4ccccc34)cc2N)CC1` [4-(3-amino-4-(4-tert-butylpiperazin-1-yl)phenyl)phthalazin-1(2H)-one] and `Nc1cc(-c2n[nH]c(=O)c3ccccc23)ccc1N1CCNCC1` [4-(3-amino-4-(piperazin-1-yl)phenyl)phthalazin-1(2H)-one] fall in the same range of pIC50: 7.00 to 9.00 for the first, 7.00 to 9.00 for the second.

`CC(=O)Nc1cc(-c2n[nH]c(=O)c3ccccc23)ccc1N1CCN(C(C)=O)CC1` [N-(2-(4-acetylpiperazin-1-yl)-5-(4-oxo-3,4-dihydrophthalazin-1-yl)phenyl)acetamide] and `CCN1CCN(c2ccc(-c3n[nH]c(=O)c4ccccc34)cc2NC(C)=O)CC1` [N-(2-(4-ethylpiperazin-1-yl)-5-(4-oxo-3,4-dihydrophthalazin-1-yl)phenyl)acetamide] fall in the same range of pIC50: 5.30 to 6.00 for the first, 5.30 to 6.00 for the second.

First: CCN1CCN(c2ccc(-c3n[nH]c(=O)c4ccccc34)cc2NC(=O)C(C)(C)C)CC1 [N-(2-(4-ethylpiperazin-1-yl)-5-(4-oxo-3,4-dihydrophthalazin-1-yl)phenyl)pivalamide]
Second: CC(=O)Nc1cc(-c2n[nH]c(=O)c3ccccc23)ccc1N1CCN(C(C)C)CC1 [N-(2-(4-isopropylpiperazin-1-yl)-5-(4-oxo-3,4-dihydrophthalazin-1-yl)phenyl)acetamide]
The pIC50 of the first is lower: less than 5.30 for the first, 5.30 to 6.00 for the second.

`CN1CCN(c2ccc(-c3n[nH]c(=O)c4ccccc34)cc2NC(=O)c2ccc3c(c2)OCO3)CC1` [N-(2-(4-methylpiperazin-1-yl)-5-(4-oxo-3,4-dihydrophthalazin-1-yl)phenyl)benzo[d][1,3]dioxole-5-carboxamide] and `CN1CCN(c2ccc(-c3n[nH]c(=O)c4ccccc34)cc2NC(=O)C2CCCCC2)CC1` [N-(2-(4-methylpiperazin-1-yl)-5-(4-oxo-3,4-dihydrophthalazin-1-yl)phenyl)cyclohexanecarboxamide] fall in the same range of pIC50: 6.00 to 7.00 for the first, 6.00 to 7.00 for the second.
